The experiment deals with TGF-β. In words: TGFβ/SMAD Signaling Pathway SBE Reporter-HEK293 luciferase assay (inhibition of TGF-β). The experiment is classed as cell-based. The following applies: SBE reporter-HEK293 cells, human TGFβ1 20 ng/ml; for IC50: 4 h compound pre-incubation, ~18 hours, luciferase luminescence; for inhibitory activity against TGF-β: statement in words. As for the experimental part: Transforming TGF-β regulates the proliferation and differentiation of fibroblasts, which are the primary constituent cells of fibrous tissues. As such, representative compounds of the present disclosure were tested for their ability to inhibit TGF-β.
• 1. TGFβ/SMAD Signaling Pathway SBE Reporter—HEK293 Cell Line BPS Bioscience Catalog #: 60653 • 2. Human TGFβ1 (BPS Bioscience #90900-1) • 3. SIS3 (Sigma #S0447): inhibitor of TGFβ pathway. Prepare stock solution in DMSO. • 4. Growth medium: MEM medium (Invitrogen #11095-080)+10% FBS (ATCC #30-2020)+1% non-essential amino acids (Lonza #13-114E)+1 mM Na pyruvate (Lonza #13-115E)+1% Penicillin/Streptomycin (ATCC #30-2300)+400 μg/ml of Geneticin (Invitrogen #11811-031). • 5. Assay medium: MEM medium+0.5% FBS+1% non-essential amino acids+1 mM Na pyruvate+1% Pen/Strep • 6. 96-well tissue culture-treated white clear-bottom assay plate (Corning #3610) • 7. ONE-Step™ Luciferase Assay System (BPS, Cat. #60690)
SBE reporter-HEK293 cells were harvested from culture in growth medium and seeded at a density of ˜10,000 cells per well into a white clear-bottom 96-well microplate in 100 μl of assay medium. The plate containing cells were incubated at 37° C. in a CO2 incubator. 24 hours after seeding, cells were washed with 100 μL of assay buffer and treated with three fold serial dilution of compounds in 50 μl assay medium. Cells were incubated at 37° C. in a CO2 incubator for 4 hours. For control wells 50 μl assay medium was added with no inhibitor. Each treatment was done in triplicate. After 4 hours of incubation, 5 μl of human TGFβ1 in assay medium was added to cells (final TGFβ1 concentration=20 ng/ml). 5 μl of assay medium was added to the unstimulated control wells (for determining the basal activity). The plate with cells was incubated at 37° C. in a CO2 incubator overnight (˜18 hours). After 18 hours of incubation Luciferase assay was performed using ONE-Step™ Luciferase Assay System according to the protocol provided: 50 μl of ONE-Step™ Luciferase reagent was added per well and shook at room temperature for ˜10 minutes. Luminescence was measured using a luminometer.

SMILES strings stand for the structures.

What is called IC50 is the concentration that gives 50% inhibition. A low value points to greater potency in that assay. On to `COc1cc2c(cc1OC)CN(C(=O)/C=C/c1c(-c3ccc(Cl)cc3)nc3ccccn13)CC2` [Compound 6], for which the IC50 was 5.45 µM and the “inhibitory activity against TGF-β” value is on record as “showed inhibitory activity”.
For `O=C(/C=C/c1c(-c2ccccc2)nc2ccccn12)N1CCOCC1` [Compound 8] the same measures were 3.72 µM and “showed inhibitory activity”.
Taken in the same sequence, the figures for `COc1cc2c(cc1OC)CN(C(=O)/C=C/c1c(-c3ccccc3)nc3ccccn13)C2` [Compound 9] were 6.11 µM and “showed inhibitory activity”.
Taken in the same sequence, the figures for `COc1cc2c(cc1OC)CN(C(=O)/C=C/c1c(-c3ccccc3)nc3ccc(F)cn13)C2` [Compound 10] were 4.32 µM and “showed inhibitory activity”.
With `COc1cc2c(cc1OC)CN(C(=O)/C=C/c1c(-c3ccc(F)cc3)nc3ccccn13)C2` [Compound 11], the IC50 was 3.52 µM and the “inhibitory activity against TGF-β” value is “showed inhibitory activity”.
On to `COc1cc2c(cc1OC)CN(C(=O)/C=C/c1c(-c3ccccc3)n(C)c3ncccc13)CC2` [SIS3, reference compound], for which the IC50 came out at 2.65 µM.

For the origin of these results see US20260027124A1, “SUBSTITUTED IMIDAZO[1,2-A]PYRIDINE COMPOUNDS AND THE USE THEREOF IN THE TREATMENT AND PREVENTION OF FIBROSIS” (MOEXA PHARMACEUTICALS LIMITED, priority 2022, published 2026).
